Test results taken from US12544393B2, “Apoptosis-mimicking structures for inducing tissue regeneration” (THE REGENTS OF THE UNIVERSITY OF MICHIGAN, priority 2017, dated 2026).

System: bone marrow stromal cells (BMSCs)
Test: Transwell migration assay of BMSCs
Format: cell-based, mouse
Protocol: The macrophage culture, co-cultures with apoptosis mimicking structures, and co-cultures with the control microspheres were also used in transwell assays to determine in vitro bone marrow stromal cell migration. Bone marrow stromal cells (BMSCs) were derived from bone marrow flush, and were cultured in α-MEM medium (20% FBS, Pen/Strep, glutamine) for one time (passage) after isolation.
Cell migration was assessed in 24-well plate transwells (Corning, Inc.) with a diameter of 6.5 mm and a pore size of 8 μm coated with 0.2 mg/mL collagen type I (EMD Millipore). BMSCs were placed in the upper chambers. Conditioned media from the macrophage culture, the co-cultures, or α-MEM medium (a negative control) containing CCL-2 protein and 0.2% FBS were added to the lower chambers. After 8 hours, cells were fixed with 2.5% glutaraldehyde for 15 minutes. Cells which remained on top of transwell membranes were removed with cotton swabs. Cells that had migrated through the pores to the lower surface were stained with Gill's Hematoxylin (Sigma-Aldrich). Four fields at 200× magnification were selected at random, photo micrographic images were obtained (shown in FIG. 15C), and the cells in each image were counted (results shown in FIG. 15D).
Different concentrations of recombinant CCL-2 were also examined for increasing BMSC migration.

Substance: CCL-2: recombinant C-C motif chemokine ligand 2 protein
- increase of BMSCs migration compared with the control medium (concentration of 10 ng/ml): about 70%
- further increase in BMSCs migration (concentration up to 100 ng/ml): did not cause further increase
